Reference: patent publication US8889638B2, “Stimulus-triggered prodrugs” (The Regents of the University of California, priority 2010, dated 2014)

Key:
[1] = Acid stability in 0.1 M HCl (absorption spectra); type: physicochemical; conditions: 0.1 M HCl over 24 h
Description: To examine the stability of compound 8 towards acid hydrolysis, the absorption spectra of a 0.05 mM solution of 8 in a 0.1 M aqueous solution of HCl was collected. Spectra were collected at room temperature every hour for a 24 h time period. No change in the spectra was observed (FIG. 11).

[2] = target: T1, MMP-8 (catalytic domain, human, recombinant) (Homo sapiens, UniProt P22894); test: MMP-8 fluorescence-based inhibition assay with and without β-glucosidase; type: biochemical
T1 construct: MMP-8 (catalytic domain, human, recombinant); purchased BIOMOL International
T1 sequence (P22894 100-262 limits assumed): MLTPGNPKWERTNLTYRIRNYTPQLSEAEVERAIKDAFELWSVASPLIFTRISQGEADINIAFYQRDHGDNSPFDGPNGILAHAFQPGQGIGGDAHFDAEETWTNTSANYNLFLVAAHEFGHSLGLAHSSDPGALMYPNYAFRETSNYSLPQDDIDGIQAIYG
Description: MMP-9 (catalytic domain, human, recombinant), MMP-8 (catalytic domain, human, recombinant), and the assay kit were purchased from BIOMOL International. The assays were carried out according to the procedure provided with the kit. MMP activity was measured in 96-well plates using a Bio-Tek Flx 800 fluorescent plate reader. The ZBGs and their protected analogs were dissolved in DMSO and diluted in HEPES buffer (50 mM, pH 7.5) to a concentration of 10 mM for 1-2, 40 mM for 3-4, and 1.25 mM for 5-6. Each well contained 20 μL, of MMP-9 (0.45 U/mL), inhibitor (10 μL, of 1-6), 5 μL, of β-glucosidase (1 U/μL) when used, and buffer for a total volume of 99 μL. These were incubated for 1 h at 37° C. […] The reaction was initiated by the addition of 1 μL (400 μM) of the fluorescent substrate (Mca-Pro-Leu-Gly-Leu-Dpa-Ala-Arg-NH2 where Mca=(7-methoxycoumarin-4-yl)-acetyl and Dpa=N-3-(2,4-dinitrophenyl)-L-α-β-diaminopropionyl)) and kinetic activity was measured every minute for 30 min with excitation and emission wavelengths at 335 nm and 405 nm, respectively. Enzyme activity with inhibitor was calculated with respect to the control experiment (no inhibitor present). […]
IC50 values were obtained for compounds 1-8 against MMP-9 and for compounds 7 and 8 against MMP-8. […] Enzyme activity with inhibitor was calculated with respect to the control experiment (no inhibitor present). […]

Q: For `O=C(NCc1ccc(-c2ccccc2)cc1)c1cccc(=O)n1O[C@@H]1O[C@H](CO)[C@@H](O)[C@H](O)[C@H]1O` [Compound 8, N-(Biphenyl-4-ylmethyl)-6-oxo-1-(β-D-glucopyranosyloxy)-1,6-dihydropyridine-2-carboxamide], which “cleavage under acidic conditions” value [1] is on record?
A: Its value is “not cleaved”.

Q: What about the inhibition at 0.15 µM ([2]; 150 nM, read-out: inhibition of MMP-8 after activation with β-glucosidase) of the same compound?
A: Its inhibition at 0.15 µM is 33%.

Q: And the “increase in activity upon enzymatic activation” value ([2]; MMP-8, with vs without β-glucosidase)?
A: The value was > 1000 fold.
